In brackets after ≈: the same amount, converted by molar mass. Several values for one entry are separate records, joined by “and”; a condition that tells them apart may be missing. Identical values can stand only once. Like-named read-outs stand apart in the source and are kept apart here.
Columns and labels:
[1] = physchem; settings: organic solvent or mixture
[2] = 4.5 months
Excerpt: A plurality of metered dose inhalers (MDIs) were filled with either the first or second therapeutic formulation. MDIs were stored either upright (Up) or inverted (in). Each MDI comprised a valve and a canister.

[3] = HFA 134a
[4] = physchem; settings: organic solvent or mixture, Mean Drug Solubility (± standard deviation)
[5] = HFA 134a, Metering Valve 1908, 25° C., Up
[6] = HFA 134a, Metering Valve 1908, 40° C. (75% RH), Down
[7] = HFA 134a, Metering Valve 1908, 40° C. (75% RH), Up
[8] = HFA 134a, Metering Valve 1908, Presspart Plasma Coated 14 ml C128, 5° C., Up
[9] = HFA 134a, Metering valve 1904 (with dip tube 1906), 5° C., Up
[10] = HFA 134a, Metering valve 1904 (with dip tube 1906), 40° C. (75% RH), Down
[11] = HFA 134a, Metering valve 1904 (with dip tube 1906), 40° C. (75% RH), Up
[12] = HFA 152a, Metering Valve 1908, 5° C., Up
[13] = HFA 152a, Metering Valve 1908, 25° C., Up
[14] = HFA 152a, Metering Valve 1908, 40° C. (75% RH), Down
[15] = HFA 152a, Metering Valve 1908, 40° C. (75% RH), Up
[16] = HFA 152a, Metering valve 1904 (with dip tube 1906), 40° C. (75% RH), orientation not given
[17] = 0 %(w/w) ethanol, nicotine added 0.169 ± 0.009 %(w/w)
[18] = 14.8 %(w/w) ethanol, nicotine added 0.703 %(w/w)

CN1CCC[C@H]1c1cccnc1 [Nicotine, L-Nicotine]
solubility [1]: ≥ 10 µg/mL
Nicotine % of 5° C. [2, 5]: 98 % of 5 °C
Nicotine can content [2, 5]: 23922.695 µg and 23527.533 µg
Nicotine % of 5° C. [2, 6]: 98 % of 5 °C
Nicotine can content [2, 6]: 23663.281 µg
Nicotine % of 5° C. [2, 7]: 97 % of 5 °C
Nicotine can content [2, 7]: 22809.747 µg and 23785.869 µg
Nicotine % of 5° C. [2, 8]: 100 % of 5 °C
Nicotine can content [2, 8]: 24166.562 µg and 24126.474 µg
Nicotine % of 5° C. [2, 9]: 100 % of 5 °C
Nicotine can content [2, 9]: 23891.217 µg and 23628.856 µg
Nicotine % of 5° C. [2, 10]: 97 % of 5 °C
Nicotine can content [2, 10]: 23102.878 µg and 23079.598 µg
Nicotine % of 5° C. [2, 11]: 96 % of 5 °C
Nicotine can content [2, 11]: 22360.125 µg and 23044.004 µg
Nicotine % of 5° C. [2, 12]: 100 % of 5 °C
Nicotine can content [2, 12]: 31626.434 µg and 30855.835 µg
Nicotine % of 5° C. [2, 13]: 100 % of 5 °C
Nicotine can content [2, 13]: 31592.559 µg and 30786.35 µg
Nicotine % of 5° C. [2, 14]: 98 % of 5 °C
Nicotine can content [2, 14]: 30939.368 µg and 30153.5 µg
Nicotine % of 5° C. [2, 15]: 98 % of 5 °C
Nicotine can content [2, 15]: 30982.764 µg and 30318.689 µg
Nicotine % of 5° C. [2, 16]: 97 % of 5 °C
Nicotine can content [2, 16]: 30395.997 µg and 30048.645 µg
Effect of addition of ethanol on solubility [3]: greatly improved
Detected/Added *100% [3, 17]: 99 ± 11%
Nicotine Detected in Solution (by HPLC) % (w/w) [3, 17]: 0.168 ± 0.026 % (w/w)
Nicotine Detected in Solution (by HPLC) μg per 50 μl [3, 17]: 104 ± 15 μg per 50 μl
Detected/Added *100% [3, 18]: 108 ± 2%
Nicotine Detected in Solution (by HPLC) % (w/w) [3, 18]: 0.760 ± 0.013 % (w/w)
Nicotine Detected in Solution (by HPLC) μg per 50 μl [3, 18]: 421 ± 10 μg per 50 μl
solubility ([4]; 50:50 HFA 134a/HFA 152a): 85.8 ± 3.2 µg/mL (≈ 529 µM)
solubility ([4]; 50:50 HFA 134a/HFO 1234ze): 62.3 ± 4.4 µg/mL (≈ 384 µM)
solubility ([4]; HFA 134a): 38.5 ± 1.6 µg/mL (≈ 237 µM)
solubility ([4]; HFA 152a): 50.8 ± 2.9 µg/mL (≈ 313 µM)
solubility ([4]; HFA 227ea): 19.8 ± 4.9 µg/mL (≈ 122 µM)
solubility ([4]; HFO 1234ze): 41.5 ± 0.8 µg/mL (≈ 256 µM)
Solubility in 50:50 mixtures of propellants compared with single propellants (50:50 mixtures of propellants): higher solubility than either propellant alone
Solubility, equivalent % by mass (HFA 152a): 0.56 % by mass

Reference: US20260102340A1, “Therapeutic Formulation” (1000739373 Ontario Ltd., priority 2022, published 2026)
